This is an account of results in patent US20150246938A1, “NOVEL OLEFIN DERIVATIVE” (SHIONOGI & CO., LTD., priority 2011, published 2015).

SMILES strings stand for the structures. Like-named read-outs stand apart in the source and are kept apart here.

One experiment deals with T1, recombinant human ACC1 (Homo sapiens, UniProt Q13085).
T1 construct: a cDNA encoding human ACC1 (1-2346) was cloned from human liver cDNA library (BioChain); myc-tag (C); His-tag (C); made in house; host or cells: Sf-9 insect cells (baculovirus, FlashBACGOLD)
Kind of experiment: Measurement of inhibitory activity on human ACC1 (MALDI-TOF MS, acetyl CoA to malonyl CoA conversion). Type of experiment: biochemical. From the text: Recombinant baculovirus was generated using FlashBACGOLD system (Oxford Expression Technologies) according to the manufacturer's protocol. To express human ACC1, Sf-9 cells were infected with recombinant baculovirus. After infected cells were disrupted, the filtrated lysate was subjected to Ni-affinity chromatography and anion-exchange chromatography. The fractions containing human ACC1 protein were pooled as recombinant human ACC1 solution.
Recombinant human ACC1 and recombinant human ACC2, which were prepared by the method mentioned above, were preincubated with assay buffer solution (50 mM HEPES-KOH (pH 7.4), 10 mM magnesium chloride, 6-10 mM potassium citrate, 4 mM reduced form of glutathione, 1.5 mg/ml bovine serum albumin) for one hour. Then, 0.2 μL of each this invention compound solution (in DMSO) were dispensed to 384-well microplate, 5 μL of the preincubated enzyme solution and 5 μL of substrate solution (50 mM HEPES-KOH (pH 7.4), 1 mM ATP, 0.8 mM acetyl CoA and 25-50 mM potassium bicarbonate) were added to microplate. After centrifugation and shaking, the reaction mixtures were incubated in a humidified box at room temperature for 1 to 3 hours. After the incubation, the enzyme reactions were stopped by the addition of EDTA. Then, after the samples were cocrystallized with CHCA (α-cyano-4-hydroxy cinnamic acid) matrices on MALDI target plate, by using the matrix assist laser […] time-of-flight mass spectrometer (MALDI-TOF MS), samples were measured in reflector negative mode. Deprotonated ions of acetyl CoA (AcCoA) of substrate and malonyl CoA (MalCoA) of the reaction product were detected, then, the conversion rates of acetyl CoA to malonyl CoA was calculated by the intensity of [MalCoA-H]-/(Intensity of [MalCoA-H]-+Intensity of [AcCoA-H]-) using each signal strength. […] In addition, potassium citrate concentrations in assay buffer solution, potassium hydrogen carbonate concentrations in substrate solution and incubation time were adjusted by each lot of enzyme.

Another experiment concerns the target T2, recombinant human ACC2 (Homo sapiens, UniProt O00763).
T2 construct: a cDNA encoding human ACC2 (27-2458) was cloned from human kidney cDNA library (Clontech); His-tag (N); made in house; host or cells: Sf-9 insect cells (Bac-to-Bac baculovirus)
Put plainly: Measurement of inhibitory activity on human ACC2 (MALDI-TOF MS, acetyl CoA to malonyl CoA conversion). It is filed as biochemical.

Where [1] appears, read: recombinant human ACC1, MALDI-TOF MS readout, read-out: 50% inhibitory concentration (1050) on human ACCT.
Where [2] appears, read: inhibition activity on human ACC2, Table 84, read-out: IC50.

T2 sequence (O00763 27-2458): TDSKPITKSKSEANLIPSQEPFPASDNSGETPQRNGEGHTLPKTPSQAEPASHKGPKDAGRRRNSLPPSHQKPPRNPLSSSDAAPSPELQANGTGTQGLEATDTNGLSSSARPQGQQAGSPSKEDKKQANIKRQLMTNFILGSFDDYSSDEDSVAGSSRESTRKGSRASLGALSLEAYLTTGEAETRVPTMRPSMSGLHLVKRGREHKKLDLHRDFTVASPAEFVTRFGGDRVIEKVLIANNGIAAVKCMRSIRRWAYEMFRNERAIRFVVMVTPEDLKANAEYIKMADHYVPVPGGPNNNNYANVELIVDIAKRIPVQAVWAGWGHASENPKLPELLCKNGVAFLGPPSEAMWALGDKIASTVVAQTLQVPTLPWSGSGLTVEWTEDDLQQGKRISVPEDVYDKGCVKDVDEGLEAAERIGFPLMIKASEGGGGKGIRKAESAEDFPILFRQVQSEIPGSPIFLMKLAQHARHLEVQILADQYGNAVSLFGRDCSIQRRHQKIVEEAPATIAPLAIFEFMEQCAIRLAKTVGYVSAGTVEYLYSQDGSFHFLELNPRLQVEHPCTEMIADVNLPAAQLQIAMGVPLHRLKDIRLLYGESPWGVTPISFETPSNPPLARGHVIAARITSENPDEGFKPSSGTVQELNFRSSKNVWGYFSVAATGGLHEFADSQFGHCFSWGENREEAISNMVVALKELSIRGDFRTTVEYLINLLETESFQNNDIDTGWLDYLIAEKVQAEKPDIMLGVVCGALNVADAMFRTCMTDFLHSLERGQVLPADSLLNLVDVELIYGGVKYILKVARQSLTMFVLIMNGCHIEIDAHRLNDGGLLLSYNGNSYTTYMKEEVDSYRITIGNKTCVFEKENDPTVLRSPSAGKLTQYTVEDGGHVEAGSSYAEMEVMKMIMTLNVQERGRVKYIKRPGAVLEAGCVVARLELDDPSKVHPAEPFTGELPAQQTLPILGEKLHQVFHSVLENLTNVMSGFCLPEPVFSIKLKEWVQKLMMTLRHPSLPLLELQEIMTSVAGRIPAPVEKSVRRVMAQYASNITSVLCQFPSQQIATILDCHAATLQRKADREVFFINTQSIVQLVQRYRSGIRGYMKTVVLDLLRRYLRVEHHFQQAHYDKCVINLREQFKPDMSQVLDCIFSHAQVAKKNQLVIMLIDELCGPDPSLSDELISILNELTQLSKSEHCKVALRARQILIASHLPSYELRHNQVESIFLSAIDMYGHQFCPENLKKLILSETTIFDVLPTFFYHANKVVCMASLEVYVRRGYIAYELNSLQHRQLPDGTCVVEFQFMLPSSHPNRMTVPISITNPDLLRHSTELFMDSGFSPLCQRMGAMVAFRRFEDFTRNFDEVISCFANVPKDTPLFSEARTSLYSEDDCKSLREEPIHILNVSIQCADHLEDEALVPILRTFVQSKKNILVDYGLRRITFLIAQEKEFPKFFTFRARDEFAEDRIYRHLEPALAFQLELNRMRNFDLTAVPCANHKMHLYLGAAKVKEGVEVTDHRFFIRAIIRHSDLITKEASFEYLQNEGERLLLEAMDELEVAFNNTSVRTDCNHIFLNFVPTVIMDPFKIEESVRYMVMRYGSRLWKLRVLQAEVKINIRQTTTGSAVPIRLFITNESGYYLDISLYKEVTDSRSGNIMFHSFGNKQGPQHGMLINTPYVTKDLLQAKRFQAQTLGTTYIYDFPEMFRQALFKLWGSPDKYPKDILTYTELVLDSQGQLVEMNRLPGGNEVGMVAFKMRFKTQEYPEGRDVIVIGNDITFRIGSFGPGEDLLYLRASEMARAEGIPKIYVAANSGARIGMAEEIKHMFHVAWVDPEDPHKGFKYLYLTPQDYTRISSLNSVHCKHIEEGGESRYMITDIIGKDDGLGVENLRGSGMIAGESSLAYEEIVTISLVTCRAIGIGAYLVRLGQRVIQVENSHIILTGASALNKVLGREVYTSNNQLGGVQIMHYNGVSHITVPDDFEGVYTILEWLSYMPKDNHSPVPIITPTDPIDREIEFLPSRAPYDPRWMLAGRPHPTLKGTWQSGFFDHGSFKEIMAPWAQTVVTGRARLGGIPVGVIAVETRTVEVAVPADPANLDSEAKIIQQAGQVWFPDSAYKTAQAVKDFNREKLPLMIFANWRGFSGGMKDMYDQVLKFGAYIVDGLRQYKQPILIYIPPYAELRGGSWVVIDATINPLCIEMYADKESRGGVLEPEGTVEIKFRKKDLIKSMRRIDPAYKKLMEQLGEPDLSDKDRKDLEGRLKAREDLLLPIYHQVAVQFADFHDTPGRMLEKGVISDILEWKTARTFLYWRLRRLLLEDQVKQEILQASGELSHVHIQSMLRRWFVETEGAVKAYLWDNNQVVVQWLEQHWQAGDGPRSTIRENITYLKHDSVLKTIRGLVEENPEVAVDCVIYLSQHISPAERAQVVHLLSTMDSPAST
Description for recombinant human ACC2: To express human ACC2, Sf-9 cells were infected with recombinant baculovirus. After infected cells were disrupted, the filtrated lysate was subjected to Ni-affinity chromatography and anion-exchange chromatography. The fractions containing human ACC2 protein were pooled as recombinant human ACC2 solution.
Recombinant human ACC1 and recombinant human ACC2, which were prepared by the method mentioned above, were preincubated with assay buffer solution (50 mM HEPES-KOH (pH 7.4), 10 mM magnesium chloride, 6-10 mM potassium citrate, 4 mM reduced form of glutathione, 1.5 mg/ml bovine serum albumin) for one hour. Then, 0.2 μL of each this invention compound solution (in DMSO) were dispensed to 384-well microplate, 5 μL of the preincubated enzyme solution and 5 μL of substrate solution (50 mM HEPES-KOH (pH 7.4), 1 mM ATP, 0.8 mM acetyl CoA and 25-50 mM potassium bicarbonate) were added to microplate. After centrifugation and shaking, the reaction mixtures were incubated in a humidified box at room temperature for 1 to 3 hours. After the incubation, the enzyme reactions were stopped by the addition of EDTA. Then, after the samples were cocrystallized with CHCA (α-cyano-4-hydroxy cinnamic acid) matrices on MALDI target plate, by using the matrix assist laser deionization time-of-flight mass spectrometer (MALDI-TOF MS), samples were measured in reflector negative mode. Deprotonated ions of acetyl CoA (AcCoA) of substrate and malonyl CoA (MalCoA) of the reaction product were detected, then, the conversion rates of acetyl CoA to malonyl CoA was calculated by the intensity of [MalCoA-H]-/(Intensity of [MalCoA-H]-+Intensity of [AcCoA-H]-) using each signal strength. […] In addition, potassium citrate concentrations in assay buffer solution, potassium hydrogen carbonate concentrations in substrate solution and incubation time were adjusted by each lot of enzyme.

Regarding `CC(=O)N[C@@H](C)/C=C/c1cnc(Oc2ccc(OCC3CC3)cc2Cl)s1` [Compound I-1], the IC50 on recombinant human ACC1 (setting [1]) is greater than 100000 nM. The same measure, in the same setting: the figure for `CCCc1ccc(Oc2ccc(/C=C/[C@H](C)NC(C)=O)cn2)c(Cl)c1` [Compound I-30] is greater than 100000 nM. With `CCOc1ccc(Cc2ccc(/C=C/[C@H](C)NC(C)=O)cn2)c(Cl)c1` [Compound I-60], the IC50 on recombinant human ACC1 was greater than 100000 nM. Consider `C[C@@H](/C=C/c1cnc(Oc2ccc(OCC3CC3)cc2Cl)s1)NC(=O)CC(=O)OC(C)(C)C` [Compound I-100], for which, on recombinant human ACC1 (setting [1]), the IC50 was greater than 100000 nM.

With `COC(=O)CCCCC(=O)N[C@@H](C)/C=C/c1cnc(Oc2ccc(OCC3CC3)cc2Cl)s1` [Compound I-130], at recombinant human ACC1 (setting [1]), the IC50 was greater than 100000 nM. Same read-out and setting: the figure for `C[C@@H](/C=C/c1cnc(Oc2ccc(OCC3CC3)cc2Cl)s1)NC(=O)c1ccnc(N(C)C)c1` [Compound I-160] is greater than 100000 nM; for `COC(=O)N[C@@H](C)/C=C/c1cnc(Oc2ccc(OCC3CC3)cc2Cl)s1` [Compound I-180] it is greater than 100000 nM; for `CC(C)NC(=O)c1cc(C(=O)N[C@@H](C)/C=C/c2cnc(Oc3ccc(OCC4CC4)cc3Cl)s2)ccn1` [Compound I-210] it is greater than 100000 nM. With `CNC(=O)COc1cc(C(=O)N[C@@H](C)/C=C/c2cnc(Oc3ccc(OCC4CC4)cc3Cl)s2)ccn1` [Compound I-250], at recombinant human ACC1 (setting [1]), the IC50 was greater than 100000 nM.

In the case of `CC(=O)N[C@@H](C)/C=C/c1ccc(Oc2ccc(C(C)(C)C)cc2Cl)nc1` [Compound I-300], the figures for the IC50 on recombinant human ACC1 (setting [1]) and on recombinant human ACC2 were greater than 100000 nM and 18 nM, respectively.

As for `CCNC(=O)c1cc(C(=O)N[C@@H](C)/C=C/c2cnn(Cc3ccc(OCC4CC4)c(Cl)c3Cl)c2)ccn1` [Compound I-320], the IC50 is greater than 100000 nM on recombinant human ACC1 and 230 nM at recombinant human ACC2 (inhibition activity on human ACC2, Table 82, read-out: IC50). Take `CCCc1ccc(Oc2ccc(/C=C/[C@H](C)NC(=O)CN)cn2)c(Cl)c1` [Compound I-390]: the IC50 at recombinant human ACC1 is greater than 100000 nM; on recombinant human ACC2, 540 nM. For the compound `CC(=O)N[C@@H](C)/C=C/c1ccc(Oc2ccc(-c3ncns3)cc2Cl)nc1` [Compound I-420], the IC50 at recombinant human ACC1 (setting [1]) was greater than 100000 nM; at recombinant human ACC2, 120 nM. In the case of `CCCc1ccc(Oc2ccc(/C=C/[C@H](C)NC(C)=O)cn2)c(OC)c1` [Compound I-438], the IC50 at recombinant human ACC1 was greater than 100000 nM; on recombinant human ACC2 (setting [2]), 780 nM. With `CC(=O)N[C@@H](C)/C=C/c1ccc(Oc2ccc(OCC3CC3)cc2Cl)cn1` [Compound I-490], at recombinant human ACC2 (setting [2]), the IC50 came to 42 nM. Same read-out and setting: the value for `CC(=O)N[C@@H](C)/C=C/c1ccc(Oc2ccc3nc(C(F)(F)F)sc3c2Cl)nc1` [Compound I-491] was 5.8 nM; that for `CC(=O)N[C@@H](C)/C=C/c1ccc(Oc2cnc(OCC3CC3)nc2)nc1` [Compound I-492] was 80 nM. `CC(=O)N[C@@H](C)/C=C/c1ccc(Oc2ccc(-c3ncc(F)cn3)cc2)nc1` [Compound I-493]: on recombinant human ACC2 (setting [2]), the IC50 is 150 nM. As to `CC(=O)N[C@@H](C)/C=C/c1ccc(Oc2ccc(C3CC3C)cc2Cl)nc1` (stereo partly drawn) [Compound I-494], at recombinant human ACC2 (setting [2]), the IC50 is 14 nM. Regarding `CCc1nc2ccc(Oc3ccc(/C=C/[C@H](C)NC(C)=O)cn3)cc2o1` [Compound I-495], the IC50 at recombinant human ACC2 (setting [2]) was determined as 21 nM.

In the case of `CCCc1ccc(Oc2ccc(/C=C/[C@H](C)NC(C)=O)nc2)c(Cl)c1` [Compound I-496], on recombinant human ACC2 (setting [2]), the IC50 was 210 nM. Regarding `CC(=O)N[C@@H](C)/C=C/c1cnc(Oc2ccc(C(C)(C)C)cc2Cl)cn1` [Compound I-497], on recombinant human ACC2 (setting [2]), the IC50 is 51 nM. Take `CC(=O)N[C@@H](C)/C=C/c1ccc(Oc2ccc3c(c2)CC(C)(C)O3)nc1` [Compound I-498]: on recombinant human ACC2 (setting [2]), the IC50 turned out to be 27 nM. For `CC(=O)N[C@@H](C)/C=C/c1ccc(Oc2cnc(N3CCCCC3)nc2)nc1` [Compound I-499], the IC50 at recombinant human ACC2 (setting [2]) stood at 96 nM. As for `CC(=O)N[C@@H](C)/C=C/c1ccc(Oc2ccc3nc(C(C)C)oc3c2)nc1` [Compound I-500], the IC50 on recombinant human ACC2 (setting [2]) is 8.9 nM. The same measure, in the same setting: the figure for `CC(=O)N[C@@H](C)/C=C/c1ccc(Oc2ccc3sc(C)nc3c2Cl)nc1` [Compound I-501] is 31 nM; for `CC(=O)N[C@@H](C)/C=C/c1ccc(Oc2ccc3nc(C(C)(C)C)sc3c2Cl)nc1` [Compound I-502] it is 7.1 nM; for `CC(=O)N[C@@H](C)/C=C/c1ccc(Oc2ccc(-c3ccccc3)c(Cl)c2)nc1` [Compound I-503] it is 5.1 nM. As for `CC(=O)N[C@@H](C)/C=C/c1ccc(Oc2ccc3nc(C(C)(C)C)sc3c2)nc1` [Compound I-504], the IC50 at recombinant human ACC2 (setting [2]) worked out at 6.5 nM.

With `CCOc1ccc(OCc2cccc(/C=C/[C@H](C)NC(C)=O)n2)c(Cl)c1` [Compound I-505], the IC50 on recombinant human ACC2 (setting [2]) came out at 45 nM.

Take `CCOc1ccc(OCc2cccc(/C=C/[C@H](C)NC(C)=O)c2)c(Cl)c1` [Compound I-506]: on recombinant human ACC2 (setting [2]), the IC50 turned out to be 8.2 nM. Same read-out and setting: the value for `CC(=O)N[C@@H](C)/C=C/c1ccc(Oc2cc3c(cc2Cl)OC(C)(C)C3)nc1` [Compound I-507] was 43 nM. As to `CC(=O)N[C@@H](C)/C=C/c1cnc(Oc2cc3c(cc2Cl)OC(C)(C)C3)cn1` [Compound I-508], the IC50 on recombinant human ACC2 (setting [2]) was 230 nM.

For `CC(=O)N[C@@H](C)/C=C/c1ccc(Oc2ccc3nc(C)sc3c2C#N)nc1` [Compound I-509], the IC50 on recombinant human ACC2 (setting [2]) was determined as 23 nM. In the case of `CC(=O)N[C@@H](C)/C=C/c1cnc(Oc2ccc3nc(C(F)(F)F)sc3c2Cl)cn1` [Compound I-510], the IC50 on recombinant human ACC2 (setting [2]) came to 6 nM. Same read-out and setting: the figure for `CC(=O)N[C@@H](C)/C=C/c1ccc(Oc2ccc3c(c2Cl)CCN(CC2CC2)C3=O)nc1` [Compound I-511] is 88 nM. As to `CC(=O)N[C@@H](C)/C=C/c1ccc(Oc2ccc(CC(C)(C)C)cc2Cl)cn1` [Compound I-512], the IC50 at recombinant human ACC2 (setting [2]) was found to be 140 nM. Regarding `CC(=O)N[C@@H](C)/C=C/c1ccc(Oc2ccc(C3=CCC4(CC3)CC4)cc2Cl)cn1` [Compound I-513], at recombinant human ACC2 (setting [2]), the IC50 worked out at 27 nM. Still for that read-out and setting: the value for `CC(=O)N[C@@H](C)/C=C/c1ccc(Oc2ccc(-c3ccc(F)cc3)cc2)nc1` [Compound I-514] was 96 nM. As to `CC(=O)N[C@@H](C)/C=C/c1ccc(Oc2ccc(-c3ccc(C#N)cc3)cc2)nc1` [Compound I-515], the IC50 on recombinant human ACC2 (setting [2]) is 860 nM. Take `CC(=O)N[C@@H](C)/C=C/c1ccc(Oc2ccc(N3CCCCC3)nc2)nc1` [Compound I-516]: at recombinant human ACC2 (setting [2]), the IC50 was found to be 170 nM.

On to `CC(=O)N[C@@H](C)/C=C/c1ccc(Oc2cnc(N3CCC(F)(F)CC3)nc2)nc1` [Compound I-517], for which, on recombinant human ACC2 (setting [2]), the IC50 turned out to be 47 nM.

With `CC(=O)N[C@@H](C)/C=C/c1ccc(Oc2ccc3c(c2)C(=O)N(CC2CC2)CC3)nc1` [Compound I-518], at recombinant human ACC2 (setting [2]), the IC50 was 800 nM.

Consider `CC(=O)N[C@@H](C)/C=C/c1ccc(Oc2ccc3c(c2)OC(C)(C)C3)nc1` [Compound I-519], for which the IC50 at recombinant human ACC2 (setting [2]) is 59 nM. For `CC(=O)N[C@@H](C)/C=C/c1ccc(Oc2cnc(N3CCC(F)CC3)nc2)nc1` [Compound I-520], the IC50 at recombinant human ACC2 (setting [2]) was 75 nM.

Turning to `CCOc1ccc(Oc2ccc(/C=C/C(C)CNC(C)=O)cn2)c(Cl)c1` (stereo not drawn) [I’-1], the IC50 on recombinant human ACC2 (setting [2]) stood at 560 nM.
